Results reported in patent US6914045B2, “Glycopeptide antibiotics” (Wyeth Holdings Corporation, priority 2001, dated 2005).
≈ marks a conversion by molar mass, not a printed value.

How the values were obtained:
Escherichia coli = experiment: in vitro antibacterial evaluation, MIC by broth dilution; type: cell-based; conditions: 18 hours at 35° C.
[1] = tested on: Staphylococcus aureus-SMITH (GC 4543); experiment: acute lethal infection in mice; type: in vivo; conditions: acute lethal infection, female CD-1 mice, intraperitoneal challenge, intravenous 30 min. after infection, 7 day survival
Summary of the method: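 Survival at 7 days, pooled from three independent tests, yields ED50 values. Treatment is intravenous, 30 min after ip infection of female CD-1 mice, using an inoculum lethal to untreated controls within 24-48 hr.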

[2] = anatomic pathology (histopathology of heart and kidney) in mice; type: in vivo; conditions: CD-1 mice, 20 mg/kg intravenously daily for 9 days, necropsy day 10, microscopic histopathology
Procedure: Samples of tissues from necropsied mice were formalin-fixed, paraffin-embedded, sectioned, stained with hematoxylin and eosin, and examined microscopically. Histopathologic findings were recorded. These findings were subjectively graded on a scale corresponding to slight, mild, moderate, marked and severe as compared to untreated controls.

[3] = clinical pathology (serum clinical chemistry) in mice; type: in vivo; conditions: CD-1 mice, 20 mg/kg intravenously daily for 9 days, sera day 10
Procedure: 20-day-old CD-1 mice were divided into a vehicle control group (5 mice) and a treatment group (5 mice). Samples of glycopeptide antibiotics were administered at 20 mg/kg intravenously daily for 9 days.

Enterococcus sp. = experiment: in vitro antibacterial evaluation, MIC by broth dilution; type: cell-based; conditions: broth dilution, 18 hours at 35° C.
Summary of the method: (§1)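 Following National Committee for Clinical Laboratory Standards recommendations (M7-A2), susceptibility was measured by dilution in Muller-Hinton II […]. Bacteria were seeded at 5×10^5 CFU/mL against compound concentrations from 64 down to 0.06 μg/mL.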

Streptococcus sp. = experiment: as above; type: cell-based; conditions: broth dilution, 18 hours at 35° C.
Summary of the method: as §1

Staphylococcus sp. = experiment: as above; type: cell-based; conditions: broth dilution, 18 hours at 35° C.
Summary of the method: as §1

COc1ccc2cc(COCC3OC(OC4C(CO)OC(Oc5ccc(CC6NC(=O)C(C(C)c7ccccc7)NC(=O)CNC(=O)C(CO)NC(=O)C(CC7CNC(=N)N7C7OC(CO)C(O)C(O)C7O)NC(=O)C(CC7CNC(=N)N7)NC6=O)cc5)C(O)C4O)C(O)C(O)C3O)ccc2c1 (stereo not drawn) [Example 245, Cyclo[3-(2-iminoimidazolidin-4-yl)alanyl-3-(3-hexopyranosyl-2-iminoimidazolidin-4-yl)-alanylserylglycyl-β-methylphenylalanyl-O-[4-O-[6-O-[(6-methoxy-2-naphthyl)methyl]-hexopyranosyl]hexopyranosyl]tyrosyl]]
MIC Escherichia coli (ATCC 25922) (Escherichia coli): 64 µg/mL (≈ 44.6 µM) | MIC Escherichia coli (GC 4559) (Escherichia coli): 32 µg/mL (≈ 22.3 µM) | MIC Escherichia coli (GC 4560) (Escherichia coli): 4 µg/mL (≈ 2.79 µM) | median effective dose (ED50), Staphylococcus aureus-SMITH (GC 4543) [1]: 4 mg/kg | Anatomical Pathology (Day 10), Heart [2]: 0 | Anatomical Pathology (Day 10), Kidney [2]: +++ | Clinical Chemistry (Day 10) % of Control, BUN [3]: +160% | Clinical Chemistry (Day 10) % of Control, Creatinine [3]: +138% | MIC Enterococcus avium (GC 4558) (Enterococcus sp.): 16 µg/mL (≈ 11.2 µM) | MIC Enterococcus faecalis (ATCC 29212) (Enterococcus sp.): 32 µg/mL (≈ 22.3 µM) | MIC Enterococcus faecalis (GC 2242) (Enterococcus sp.): 16 µg/mL (≈ 11.2 µM) | MIC Enterococcus faecalis (GC 2691) (Enterococcus sp.): 32 µg/mL (≈ 22.3 µM) | MIC Enterococcus faecalis (GC 3059) (Enterococcus sp.): 16 µg/mL (≈ 11.2 µM) | MIC Enterococcus faecalis (GC 4552) (Enterococcus sp.): 16 µg/mL (≈ 11.2 µM) | MIC Enterococcus faecalis (GC 4553) (Enterococcus sp.): 16 µg/mL (≈ 11.2 µM) | MIC Enterococcus faecalis (GC 4554) (Enterococcus sp.): 32 µg/mL (≈ 22.3 µM) | MIC Enterococcus faecalis (GC 6189) (Enterococcus sp.): 32 µg/mL (≈ 22.3 µM) | MIC Enterococcus faecium (GC 2243) (Enterococcus sp.): 16 µg/mL (≈ 11.2 µM) | MIC Enterococcus faecium (GC 4556) (Enterococcus sp.): 16 µg/mL (≈ 11.2 µM) | MIC Enterococcus faecium (GC 4557) (Enterococcus sp.): 4 µg/mL (≈ 2.79 µM) | MIC Enterococcus faecalis (ATCC 29212) (Enterococcus sp.; strain ATCC 29212): 32 µg/mL (≈ 22.3 µM) | MIC Enterococcus faecium (GC 2243) (Enterococcus sp.; strain GC 2243): 16 µg/mL (≈ 11.2 µM) | MIC Enterococcus faecalis (GC 4552) (Enterococcus sp.; strain GC 4552): 16 µg/mL (≈ 11.2 µM) | MIC Enterococcus faecalis (GC 4553) (Enterococcus sp.; strain GC 4553): 16 µg/mL (≈ 11.2 µM) | MIC Enterococcus faecalis (GC 4554) (Enterococcus sp.; strain GC 4554): 32 µg/mL (≈ 22.3 µM) | MIC Enterococcus faecium (GC 4556) (Enterococcus sp.; strain GC 4556): 16 µg/mL (≈ 11.2 µM) | MIC Enterococcus faecium (GC 4557) (Enterococcus sp.; strain GC 4557): 4 µg/mL (≈ 2.79 µM) | MIC Enterococcus avium (GC 4558) (Enterococcus sp.; strain GC 4558): 16 µg/mL (≈ 11.2 µM) | MIC Enterococcus faecalis (GC 6189) (Enterococcus sp.; strain GC 6189): 32 µg/mL (≈ 22.3 µM) | MIC Enterococcus faecalis (GC 2242) (Enterococcus sp.; inoculum 5×10^5 CFU/mL, strain GC 2242): 16 µg/mL (≈ 11.2 µM) | MIC Enterococcus faecalis (GC 2691) (Enterococcus sp.; inoculum 5×10^5 CFU/mL, strain GC 2691): 32 µg/mL (≈ 22.3 µM) | MIC Enterococcus faecalis (GC 3059) (Enterococcus sp.; inoculum 5×10^5 CFU/mL, strain GC 3059): 16 µg/mL (≈ 11.2 µM) | MIC Streptococcus agalactiae (GC 4564) (Streptococcus sp.): 4 µg/mL (≈ 2.79 µM) | MIC Streptococcus pneumoniae (ATCC 6301) (Streptococcus sp.): 2 µg/mL (≈ 1.4 µM) | MIC Streptococcus pneumoniae (GC 1894) (Streptococcus sp.): 1 µg/mL (≈ 0.698 µM) | MIC Streptococcus pneumoniae (GC 4565) (Streptococcus sp.): 4 µg/mL (≈ 2.79 µM) | MIC Streptococcus pyogenes (GC 4563) (Streptococcus sp.): 4 µg/mL (≈ 2.79 µM) | MIC Streptococcus pneumoniae (ATCC 6301) (Streptococcus sp.; inoculum 5×10^5 CFU/mL, strain ATCC 6301): 2 µg/mL (≈ 1.4 µM) | MIC Streptococcus pneumoniae (GC 1894) (Streptococcus sp.; inoculum 5×10^5 CFU/mL, strain GC 1894): 1 µg/mL (≈ 0.698 µM) | MIC Streptococcus pyogenes (GC 4563) (Streptococcus sp.; inoculum 5×10^5 CFU/mL, strain GC 4563): 4 µg/mL (≈ 2.79 µM) | MIC Streptococcus agalactiae (GC 4564) (Streptococcus sp.; inoculum 5×10^5 CFU/mL, strain GC 4564): 4 µg/mL (≈ 2.79 µM) | MIC Streptococcus pneumoniae (GC 4565) (Streptococcus sp.; inoculum 5×10^5 CFU/mL, strain GC 4565): 4 µg/mL (≈ 2.79 µM) | MIC Coagulase Negative Staphylococcus (GC 4547) (Staphylococcus sp.): 4 µg/mL (≈ 2.79 µM) | MIC Coagulase Negative Staphylococcus (GC 4548) (Staphylococcus sp.): 2 µg/mL (≈ 1.4 µM) | MIC Coagulase Negative Staphylococcus (GC 4549) (Staphylococcus sp.): 1 µg/mL (≈ 0.698 µM) | MIC Coagulase Negative Staphylococcus (GC 4551) (Staphylococcus sp.): 8 µg/mL (≈ 5.58 µM) | MIC Coagulase Negative Staphylococcus (GC 6257) (Staphylococcus sp.): 2 µg/mL (≈ 1.4 µM) | MIC Staphylococcus aureus (ATCC 29213) (Staphylococcus sp.): 4 µg/mL (≈ 2.79 µM) | MIC Staphylococcus aureus (GC 1131) (Staphylococcus sp.): 8 µg/mL (≈ 5.58 µM) | MIC Staphylococcus aureus (GC 3051) (Staphylococcus sp.): 4 µg/mL (≈ 2.79 µM) | MIC Staphylococcus aureus (GC 3053) (Staphylococcus sp.): 4 µg/mL (≈ 2.79 µM) | MIC Staphylococcus aureus (GC 4541) (Staphylococcus sp.): 4 µg/mL (≈ 2.79 µM) | MIC Staphylococcus aureus (GC 4542) (Staphylococcus sp.): 4 µg/mL (≈ 2.79 µM) | MIC Staphylococcus aureus (GC 4544) (Staphylococcus sp.): 8 µg/mL (≈ 5.58 µM) | MIC Staphylococcus aureus (GC 4545) (Staphylococcus sp.): 4 µg/mL (≈ 2.79 µM) | MIC Staphylococcus aureus-SMITH (GC 4543) (Staphylococcus sp.): 4 µg/mL (≈ 2.79 µM) | MIC Staphylococcus haemolyticus (GC 4546) (Staphylococcus sp.): 4 µg/mL (≈ 2.79 µM) | MIC Staphylococcus aureus (ATCC 29213) (Staphylococcus sp.; strain ATCC 29213): 4 µg/mL (≈ 2.79 µM) | MIC Staphylococcus aureus (GC 1131) (Staphylococcus sp.; strain GC 1131): 8 µg/mL (≈ 5.58 µM) | MIC Staphylococcus aureus (GC 3051) (Staphylococcus sp.; strain GC 3051): 4 µg/mL (≈ 2.79 µM) | MIC Staphylococcus aureus (GC 3053) (Staphylococcus sp.; strain GC 3053): 4 µg/mL (≈ 2.79 µM) | MIC Staphylococcus aureus (GC 4541) (Staphylococcus sp.; strain GC 4541): 4 µg/mL (≈ 2.79 µM) | MIC Staphylococcus aureus (GC 4542) (Staphylococcus sp.; strain GC 4542): 4 µg/mL (≈ 2.79 µM) | MIC Staphylococcus aureus-SMITH (GC 4543) (Staphylococcus sp.; strain GC 4543): 4 µg/mL (≈ 2.79 µM) | MIC Staphylococcus aureus (GC 4544) (Staphylococcus sp.; strain GC 4544): 8 µg/mL (≈ 5.58 µM) | MIC Staphylococcus aureus (GC 4545) (Staphylococcus sp.; strain GC 4545): 4 µg/mL (≈ 2.79 µM) | MIC Staphylococcus haemolyticus (GC 4546) (Staphylococcus sp.; strain GC 4546): 4 µg/mL (≈ 2.79 µM) | MIC Coagulase Negative Staphylococcus (GC 4547) (Staphylococcus sp.; strain GC 4547): 4 µg/mL (≈ 2.79 µM) | MIC Coagulase Negative Staphylococcus (GC 4548) (Staphylococcus sp.; strain GC 4548): 2 µg/mL (≈ 1.4 µM) | MIC Coagulase Negative Staphylococcus (GC 4549) (Staphylococcus sp.; strain GC 4549): 1 µg/mL (≈ 0.698 µM) | MIC Coagulase Negative Staphylococcus (GC 4551) (Staphylococcus sp.; strain GC 4551): 8 µg/mL (≈ 5.58 µM) | MIC Coagulase Negative Staphylococcus (GC 6257) (Staphylococcus sp.; strain GC 6257): 2 µg/mL (≈ 1.4 µM)
